Measured values published in PMC9837764 (Nature Communications, 2023).
“And” between values parts separate entries of the source, which are not always exact repeats. Equal values may be shown once. Read-outs that look alike come from different tables or passages of the source.

Experiments:
[1] = MB-905 and metabolites in rat lung; format: in vivo, Sprague-Dawley rats (Rattus norvegicus); conditions: 30 mg/kg oral
Procedure: Noncompartmental data analysis was performed using Phoenix WinNonlin®.
Pharmacokinetics in rodent plasma was performed in CD1 mice (Mus musculus, 20–30 g) and Sprague‒Dawley rats (Rattus norvegicus, 250–300 g) of both sexes. […] After oral or intravenous administration, blood samples were collected at times of 0.25, 0.5, 1, 2, 4, 8, and 24 and 0.083, 0.25, 0.5, 1, 2, and 4 h. Parameters such as area under the curve (AUC), time taken to reach the maximum concentration (Tmax), time taken for Cmax to drop in half (T 1/2), volume of distribution, clearance, elimination constant and bioavailability (F) were evaluated. Bioavailability was calculated using the following equation: F (%) = [(intravenous dose x oral AUC)/(oral dose × intravenous AUC)] × 100. […] Animals were treated orally with MB-905 as previously described. Animals were sacrificed at different time points after treatments, and lungs were immediately removed, placed in liquid nitrogen at −80 °C and processed for further analysis. For the analysis of plasma and lung supernatant, UPLC–MS/MS equipment was used.
Supplementary Fig. 6. Pharmacokinetic and putative metabolites of MB-905 in rats. a, […]
plasma (n = 6); b, Single oral dose (30 mg/kg bodyweight) pharmacokinetics properties of MB- […]
mg/kg, p.o.) (n=5) d, Single oral dose (30 mg/kg bodyweight) pharmacokinetics properties of […]
(30 mg/kg, p.o.) (n=3) f, Single oral dose (30 mg/kg bodyweight) pharmacokinetics properties of […]

SARS-CoV-2 = assay: Yield-reduction assay, SARS-CoV-2 in Calu-3 cells (titers as PFU/mL in Vero cells); conditions: for Inhibition of SARS-CoV-2 infectious titers (Fig1B source data, replicates): additional treatment at 24 h; for Inhibition of SARS-CoV-2 infectious titers (Fig1A source data, replicates): one treatment
[2] = tested on: Salmonella typhimurium TA 102; assay: Ames test, strain TA 102
SARS-CoV-2 gamma VoC [3] = tested on: SARS-CoV-2 gamma VoC; set-up: species or system K18-hACE2 mice (Mus musculus); conditions: mouse, in vivo, 140 mg/kg/day
[4] = Pharmacokinetics in mouse plasma; format: in vivo, CD1 mice (Mus musculus); set-up: MB-905 level (Fig5A): unit not given here; conditions: for MB-905 level (Fig5A): individual animals; for k el: read-out: Ke (converted)
SARS-CoV-2 Gamma VoC [5] = tested on: SARS-CoV-2 Gamma VoC; set-up: species or system Syrian hamsters (Mesocricetus auratus); conditions: hamster, in vivo, 140 mg/kg
IL-6 = IL-6 in supernatant of SARS-CoV-2-infected human primary monocytes; format: cell-based; conditions: infected monocytes, drugs at 10 µM, 24 h
Procedure: Human primary monocytes were obtained after 3 h of plastic adherence of peripheral blood mononuclear cells (PBMCs). The use of primary human cell was approved by Institutional Review Board from the Oswaldo Cruz Foundation under protocol 49971421.8.0000.5248 with signed informed consent in accordance with the Hemotherapy Service of Hospital Clementino Fraga from the Federal University of Rio de Janeiro. All volunteers were de-identified. PBMCs were isolated from healthy donors by density gradient centrifugation (Ficoll-Paque, GE Healthcare). PBMCs (2.0 × 10^6 cells) were plated onto 48-well plates (NalgeNunc) in RPMI-1640 without serum for 2–4 h. Nonadherent cells were removed, and the remaining monocytes were maintained in DMEM with 5% human serum (HS; Millipore) and penicillin/streptomycin. The purity of human monocytes was above 95%, as determined by flow cytometric analysis (FACScan; Becton Dickinson) using anti-CD3 (BD Biosciences, cat # 555342, 1:40), anti-CD16 (Southern Biotech, cat # 561313, 1:20) and APC mouse IgG2a isotype (BD Biosciences, cat # 550882, 1/40) and PE mouse IgG1 isotype (BD Biosciences, 555749, 1/20).

[6] = tested on: Salmonella typhimurium TA 98; assay: Ames test, strain TA 98
SARS-CoV-2 gamma VoC [7] = tested on: SARS-CoV-2 gamma VoC; set-up: species or system K18-hACE2 mice (Mus musculus); conditions: mouse, in vivo
[8] = both sexes, CD1, mouse, plasma, iv, mice, 3 mg/kg (i.v.)
[9] = both sexes, CD1, mouse, plasma, po, mice, 30 mg/kg (p.o.)
[10] = both sexes, CD1, mouse, plasma, po, mice, 550 mg/kg (p.o.)

## c1coc(CNc2ncnc3[nH]cnc23)c1 [MB-905, N6-furfurylaminopurine]
[1]; 1 h
  MB-905 in rat lung (Fig4C source data, per animal): 231.05 and 263.97 and 218.08
[1]; 2 h
  MB-905 in rat lung (Fig4C source data, per animal): 360.89 and 345.91 and 313.18
[1]; 4 h
  MB-905 in rat lung (Fig4C source data, per animal): 100.91 and 155.47 and 69.56
[1]; 8 h
  MB-905 in rat lung (Fig4C source data, per animal): 7.77 and 46.28 and 12.38
[1]; 12 h
  MB-905 in rat lung (Fig4C source data, per animal): 0
SARS-CoV-2; Severe acute respiratory syndrome coronavirus 2, Calu-3
  EC50: 310 ± 50 nM
SARS-CoV-2; Severe acute respiratory syndrome coronavirus 2, Calu-3, 24 h
  EC50: 30 ± 4 nM
SARS-CoV-2; Severe acute respiratory syndrome coronavirus 2, read-out: In vitro EC90 values, range
  EC90: 2100 to 6300 nM
SARS-CoV-2; Drug 0.001, Calu-3, 48 h
  Inhibition of SARS-CoV-2 infectious titers (Fig1B source data, replicates): 16 and 20 and 22
SARS-CoV-2; Drug 0.01
  Inhibition of SARS-CoV-2 infectious titers (Fig1B source data, replicates): 22 and 55 and 63
  Inhibition of SARS-CoV-2 infectious titers (Fig1A source data, replicates): 15 and 4 and 13
SARS-CoV-2; Drug 0.1
  Inhibition of SARS-CoV-2 infectious titers (Fig1B source data, replicates): 66 and 47 and 65
  Inhibition of SARS-CoV-2 infectious titers (Fig1A source data, replicates): 22 and 39 and 30
SARS-CoV-2; Drug 1
  Inhibition of SARS-CoV-2 infectious titers (Fig1B source data, replicates): 92 and 72 and 69
  Inhibition of SARS-CoV-2 infectious titers (Fig1A source data, replicates): 60 and 91 and 74
SARS-CoV-2; Drug 10
  Inhibition of SARS-CoV-2 infectious titers (Fig1B source data, replicates): 98 and 97 and 96
  Inhibition of SARS-CoV-2 infectious titers (Fig1A source data, replicates): 66 and 96 and 88
SARS-CoV-2; huh-7 and calu-3 cells (Supplementary Fig. 2)
  Antiviral activity, SARS-CoV-2 replication: inhibited SARS-CoV-2 replication in a concentration-dependent manner
SARS-CoV-2; Drug 0.001, Calu-3, MOI 0.1, 48 h
  Inhibition of SARS-CoV-2 infectious titers (Fig1A source data, replicates): 5 and 4 and 2
[2]; 8 µg/mL
  Mutagenicity TA 102 +S9: -
  Mutagenicity TA 102 -S9: -
[2]; 40 µg/mL
  Mutagenicity TA 102 +S9: -
  Mutagenicity TA 102 -S9: -
[2]; 200 µg/mL
  Mutagenicity TA 102 +S9: -
  Mutagenicity TA 102 -S9: -
[2]; 1,000 µg/mL
  Mutagenicity TA 102 +S9: -
  Mutagenicity TA 102 -S9: -
[2]; 5,000 µg/mL
  Mutagenicity TA 102 +S9: -
  Mutagenicity TA 102 -S9: -
SARS-CoV-2 gamma VoC [3]
  Infectious titers in lungs: decreased significantly
  Virus RNA levels from lung extracts: did not alter
[4]; 140 mg/kg, 0.25 h
  MB-905 level (Fig5A): 544 and 555 and 638
[4]; 140 mg/kg, 1 h
  MB-905 level (Fig5A): 356 and 299 and 551
[4]; 140 mg/kg, 3 h
  MB-905 level (Fig5A): 447 and 177 and 154
[4]; 140 mg/kg, 8 h
  MB-905 level (Fig5A): 105 and 316 and 50
[4]; 140 mg/kg, 12 h
  MB-905 level (Fig5A): 0
[4]; 500 mg/kg, 0.25 h
  MB-905 level (Fig5A): 1228 and 1306 and 1348
[4]; 500 mg/kg, 1 h
  MB-905 level (Fig5A): 1348 and 946 and 1312
[4]; 500 mg/kg, 3 h
  MB-905 level (Fig5A): 894 and 544 and 652
[4]; 500 mg/kg, 8 h
  MB-905 level (Fig5A): 833 and 340 and 437
[4]; 500 mg/kg, 12 h
  MB-905 level (Fig5A): 103 and 13 and 0
[4]; [8]
  AUC: 66.4 ng·h/mL
  AUC(0-t): 55.5 ng·h/mL
  Cmax: 155 ng/mL
  Tmax: 4.98 min
  clearance: 918 mL/min/kg
  half-life: 13.2 min
  k el: 0.000858 s⁻¹
[4]; both sexes, CD1, mouse, plasma, iv, mice, 3 mg/kg (i.v.), read-out: Vz
  Vd: 19 L/kg
[4]; both sexes, CD1, mouse, plasma, po, 30 mg/kg, mice, 30 mg/kg (p.o.), read-out: F
  bioavailability: 53.5%
[4]; both sexes, CD1, mouse, plasma, po, 30 mg/kg, mice, read-out: Oral bioavailability
  bioavailability: > 50%
[4]; both sexes, CD1, mouse, plasma, po, 550 mg/kg, mice, 550 mg/kg (p.o.), read-out: F
  bioavailability: 36.1%
[4]; [9]
  AUC: 356 ng·h/mL
  AUC(0-t): 356 ng·h/mL
  Cmax: 570 ng/mL
  Tmax: 4.98 min
  half-life: 66.6 min
  k el: 0.000172 s⁻¹
[4]; [10]
  AUC: 4390 ng·h/mL
  AUC(0-t): 4390 ng·h/mL
  Cmax: 1050 ng/mL
  Tmax: 30 min
  half-life: 163 min
  k el: 6.94e-05 s⁻¹
[4]; mice, 30 mg/kg (p.o.)
  CL: 1060.15 mL/min/kg
  Vz: 102.21 L/kg
[4]; mice, 550 mg/kg (p.o.)
  CL: 1843.18 mL/min/kg
  Vz: 434.2 L/kg
SARS-CoV-2 Gamma VoC [5]
  Lung injury: protected this organ
IL-6
  IL-6 levels in the culture supernatant (Fig1E source data, per donor): 1.3 and 0.5 and 1.0 and 2.4 and 0.8 and 1.4 and 2.3
[6]; 8 µg/mL
  Mutagenicity TA 98 +S9: -
  Mutagenicity TA 98 -S9: -
[6]; 40 µg/mL
  Mutagenicity TA 98 +S9: -
  Mutagenicity TA 98 -S9: -
[6]; 200 µg/mL
  Mutagenicity TA 98 +S9: -
  Mutagenicity TA 98 -S9: -
[6]; 1,000 µg/mL
  Mutagenicity TA 98 +S9: -
  Mutagenicity TA 98 -S9: -
[6]; 5,000 µg/mL
  Mutagenicity TA 98 +S9: -
  Mutagenicity TA 98 -S9: -
SARS-CoV-2 gamma VoC [7]
  LDH levels in bronchoalveolar lavage (BAL): decreased
